The results in this text go back to patent publication US20220213126A1, “SMALL MOLECULE AUTOPHAGY INDUCERS FOR THE TREATMENT OF CANCER AND NEURODEGENERATIVE DISEASES” (John Wayne Cancer Institute, priority 2019, published 2022).

Data set [1] is described as follows: Pharmacokinetics of BC-4 and BC-5 in mouse plasma and brain. The data set is classed as in vivo. Conditions: Balb/c mice, single oral dose 5 mg/kg. As to the method: Pharmacokinetics of BC-4 and BC-5 were compared to BC-1. Pharmacokinetics were assessed in Balb/c mice administered a single oral dose of 5 mg/kg of the indicated compound (Tables 11 and 12).
Data set [2] can be described thus: Pharmacokinetics of BC-2 and BC-3 in mouse plasma and brain. The data set is classed as in vivo, mice. How it is done:
Pharmacokinetics were assessed in mice administered a single oral dose of 5 mg/kg of the indicated compound (Tables 9 and 10).

Another data set deals with U251. The experiment in a line: GBM cell viability, Alamar blue, 72 hours. The data set is classed as cell-based. The conditions noted are these: Homo sapiens, U-251, U251, established glioma cell line. How it is done:
(§1) The effect of VMY-BC-1 was tested on a panel of GBM cell lines. […] In this study 100 μM was the highest drug concentration used, with 3-fold dilution for a 10 dose response curve.

The test system of a further data set is GBM4. Description: GBM cell viability, Alamar blue, 72 hours. The data set is classed as cell-based. Conditions: GBM4, patient-derived cell line. How it is done:
as §1

For the next data set, the system named is U87. Description: GBM cell viability, Alamar blue, 72 hours. The data set is classed as cell-based. Conditions: Homo sapiens, U-87 MG, U87, established glioma cell line. As to the method: as §1
Another data set has as its system GL261. Description: GBM cell viability, Alamar blue, 72 hours. Conditions: Mus musculus, GL261, established glioma cell line. The data set is classed as cell-based. How it is done: as §1
In the next data set the test system is GBM8. Description: GBM cell viability, Alamar blue, 72 hours. The data set is classed as cell-based. Conditions: GBM8, patient-derived cell line. How it is done:
as §1

Where [3] appears, read: single oral dose 5 mg/kg, 0 min.
The mark [4] stands for this setting: single oral dose 5 mg/kg, 30 min.
The mark [5] stands for this setting: single oral dose 5 mg/kg, 60 min.
Setting [6] is: single oral dose 5 mg/kg, 180 min.
Setting [7] is: single oral dose 5 mg/kg, 360 min.
Setting [8] is: single oral dose 5 mg/kg, 900 min.
Where [9] appears, read: single oral dose 5 mg/kg, 1440 min.
Where [10] appears, read: Brain, single oral dose 5 mg/kg.
Where [11] appears, read: Plasma, single oral dose 5 mg/kg.

“And” between values parts separate entries of the source, which are not always exact repeats. Equal entries are not always repeated.

Consider `CC=C(c1ccc(OC)cc1)C(CC)c1cc(OC)cc(B(O)O)c1` (racemic) [BC-4], for which the “Concentrations in plasma vs brain” value in data set [1] is given as “higher concentrations in plasma than brain”. Further, the “Brain level, Mean (4) ± SE” value is on record as “BQL” in data set [1] (0 min); 164 ± 16 ng/g in data set [1] (30 min); 139 ± 14 ng/g in data set [1] (60 min); “BQL” in data set [1] (180 min); “BQL” in data set [1] (360 min); “BQL” in data set [1] (900 min). Besides, the “Brain level, Mean (4) ± SE” value in data set [1] (1440 min) was “BQL”. Moreover, the “Plasma level, Mean (4) ± SE” value was “BQL” in data set [1] (0 min); 255 ± 20 ng,/ml in data set [1] (30 min); 163 ± 20 ng,/ml in data set [1] (60 min); 36 ± 6 ng,/ml in data set [1] (180 min); 22 ± 3 ng,/ml in data set [1] (360 min); “BQL” in data set [1] (900 min). The “Plasma level, Mean (4) ± SE” value in data set [1] (1440 min) is “BQL”. The Tmax in data set [1] (Brain) and in data set [1] (Plasma) was 30 min each time. Also, the results for the T½ in data set [1] (Brain) and in data set [1] (Plasma) were 127 min and 94.5 min, respectively. The figures for the “terminal elimination rate constant (lambda z)” value in data set [1] (Brain) and in data set [1] (Plasma) were 0.00546 min⁻¹ and 0.00734 min⁻¹, respectively. Also, the exposure AUC(0-t) in data set [1] (Plasma) is 25300 ng·min/mL. Besides, the “AUC(inf)” value in data set [1] (Plasma) was determined as 28300 ng·min/mL. The same compound showed a Cmax in data set [1] (Plasma) of 255 ng/mL.

`Oc1ccc(C=Cc2cc(O)cc(O)c2)cc1` [Resveratrol, resveratrol, reference compound]: the “Drug level in plasma and brain, all time points” value in data set [2] (single oral dose 5 mg/kg) was “below quantification level”. The “Brain level, Mean (4) ± SE” value in data set [2] (setting [3]), in data set [2] (setting [4]), in data set [2] (setting [5]), in data set [2] (setting [6]), in data set [2] (setting [7]) and in data set [2] (setting [8]) was “BQL” each time. Further, in data set [2] (setting [9]), the “Brain level, Mean (4) ± SE” value is “BQL”. Moreover, the “Plasma level, Mean (4) ± SE” value in data set [2] (setting [3]), in data set [2] (setting [4]), in data set [2] (setting [5]), in data set [2] (setting [6]), in data set [2] (setting [7]) and in data set [2] (setting [8]) was “BQL” each time. In addition, the “Plasma level, Mean (4) ± SE” value in data set [2] (setting [9]) was “BQL”. The IC50 in the data set with U251 amounted to 12 µM; in the data set with GBM4 it was 40.6 µM; with U87, 40 µM; in the data set with GL261, 10.6 µM; with GBM8, 26.6 µM.

In the case of `CCC(=C(c1ccccc1)c1ccc(OC)cc1)c1cc(OC)cc(B(O)O)c1` [BC-5], in data set [1], the “Concentrations in plasma vs brain” value is on record as “higher concentrations in plasma than brain”. Further, the “Brain level, Mean (4) ± SE” value in data set [1] (0 min) is reported as “BQL”; in data set [1] (30 min), 142 ± 32 ng/g; in data set [1] (60 min), 205 ± 39 ng/g; in data set [1] (180 min), 105 ± 26 ng/g; in data set [1] (360 min), 28 ± 6 ng/g; in data set [1] (900 min), “BQL”. Further, the “Brain level, Mean (4) ± SE” value in data set [1] (1440 min) is “BQL”. The “Plasma level, Mean (4) ± SE” value in data set [1] (0 min) is on record as “BQL”; in data set [1] (30 min) it was 1599 ± 40 ng,/ml; in data set [1] (60 min), 1524 ± 106 ng,/ml; in data set [1] (180 min), 742 ± 91 ng,/ml; in data set [1] (360 min), 290 ± 35 ng,/ml; in data set [1] (900 min), 49 ± 10 ng,/ml. The “Plasma level, Mean (4) ± SE” value in data set [1] (1440 min) is listed as 15 ± 9 ng,/ml. Further, the Tmax in data set [1] (Brain) is given as 60 min; in data set [1] (Plasma) it was 30 min. The T½ came to 103 min in data set [1] (Brain) and 251 min in data set [1] (Plasma). In addition, the entries for the “terminal elimination rate constant (lambda z)” value in data set [1] (Brain) and in data set [1] (Plasma) were 0.00672 min⁻¹ and 0.00276 min⁻¹, respectively. The “AUC(0-t)” value in data set [1] (Plasma) came out at 376000 ng·min/mL. The “AUC(inf)” value in data set [1] (Plasma) worked out at 381000 ng·min/mL. Besides, in data set [1] (Plasma), the Cmax worked out at 1600 ng/mL.

In the case of `CCOc1ccc(/C=C/c2cc(OC)cc(B(O)O)c2)cc1` [BC-2, (E)-(3-(4-ethoxystyryl)-5-methoxyphenyl) Boronic Acid], in data set [2] (mouse, in vivo, po, 5 mg/kg), the AUC(0-inf) was 2000 ng·h/mL; the “AUC(inf)” value stood at 504000 ng·min/mL; the Cmax was 841 ng/mL and 4140 ng/g; the “Concentration in brain vs plasma” value is listed as “higher concentration in brain than in plasma”. For the same compound, in data set [2] (mouse, in vivo, po, 5 mg/kg), the Tmax came out at 60 min; the T½ came to 54.8 min; the concentration at 30 min was 841 ng/mL and 3420 ng/g; the concentration at 60 min was 732 ng/mL and 4140 ng/g. In data set [2] (mouse, in vivo, po, 5 mg/kg), the concentration at 180 min was 281 ng/mL and 983 ng/g; the concentration at 360 min was 43 ng/mL and 94 ng/g. Also, the Tmax in data set [2] (mouse, in vivo, po, 5 mg/kg, Tmax) was 30 min. The same compound returned a half-life in data set [2] (mouse, in vivo, po, 5 mg/kg, T½) of 72.8 min.

For `COc1cc(/C=C/c2ccc(F)cc2)cc(B(O)O)c1` [BC-3], the entries for the “Kd (Lambda Z)” value in data set [2] (setting [10]) and in data set [2] (setting [11]) were 0.000342 s⁻¹ and 0.000358 s⁻¹, respectively. The Tmax in data set [2] (setting [10]) and in data set [2] (setting [11]) was 30 min throughout. Further, the values for the T½ in data set [2] (setting [10]) and in data set [2] (setting [11]) were 33.8 min and 32.3 min, respectively. Further, the “AUC(0-t)” value in data set [2] (setting [11]) is 25500 ng·min/mL. Further, the “AUC(inf)” value in data set [2] (setting [11]) was found to be 26300 ng·min/mL. Further, the Cmax in data set [2] (setting [11]) is 439 ng/mL. In addition, the “Concentration in brain vs plasma” value in data set [2] (single oral dose 5 mg/kg) is given as “higher concentration in brain than in plasma”. In addition, the “Brain level, Mean (4) ± SE” value in data set [2] (setting [3]) is “BQL”; in data set [2] (setting [4]), 1951 ± 323 ng/g; in data set [2] (setting [5]), 1233 ± 219 ng/g; in data set [2] (setting [6]), 95 ± 26 ng/g; in data set [2] (setting [7]) it was “BQL”; in data set [2] (setting [8]), “BQL”. The “Brain level, Mean (4) ± SE” value in data set [2] (setting [9]) was “BQL”. Further, the “Plasma level, Mean (4) ± SE” value in data set [2] (setting [3]) is “BQL”; in data set [2] (setting [4]), 439 ± 67 ng/mL; in data set [2] (setting [5]), 217 ± 28 ng/mL; in data set [2] (setting [6]), 17 ± 10 ng/mL; in data set [2] (setting [7]), “BQL”; in data set [2] (setting [8]), “BQL”. Besides, the “Plasma level, Mean (4) ± SE” value in data set [2] (setting [9]) was “BQL”.
